Values of other authors in patent publication US7638678B2, “Animal model for perimenopause and menopause and methods of inducing ovarian failure” (The Arizona Board of Regents, priority 2002, dated 2009).

Key:
ovarian follicles = details: B6C3F1 mice dosed with VCH; cited from earlier work
[1] = i.p. minipumps versus injection; cited from earlier work

| Compound | Premature ovarian failure in long term studies (ovarian follicles) | Decrease of the effective dose by continuous administration [1] |
| --- | --- | --- |
| C=CC1CC=CCC1 (centres unmarked) [VCH, 4-vinylcyclohexene] | premature ovarian failure occurred within a year |  |
| endostatin |  | 8-10 fold |
